Measured values: patent publication US6362171B1, “Aminoaklanoyl-linked conjugates of 2′,5′-oligoadenylate and antiviral uses thereof” (priority 1997, dated 2002)
Where “and” joins values, the source holds several entries; their conditions need not be identical. Equal values may be shown once.

How the values were obtained:
HIV-1 strain IIIB = experiment: Infected centers assay: inhibition of HIV-1 induced syncytia formation (HIV-1 replication); format: cell-based; conditions: 300 μM compound; PBL treated 2 hours, infected with HIV-1 IIIB, co-cultured with Sup T1 cells, read at 72 hours; control 144 syncytia/10^4 cells; mean of triplicate
Protocol: The infected centers assay as described by Henderson et al., Virology 1991, 182, 186, was used to measure the ability of the conjugated trimer core compounds of the invention to inhibit HIV-1 induced syncytia formation, an indicator of HIV-1 replication in T cells. […] The infected PBL were maintained in RPMI-1640 medium supplemented with 10% (v/v) heat-inactivated fetal calf serum at 37° C. in a humidified 5% CO2 in air atmosphere. After 48 hours, the cells were washed twice in Hank's balanced salt solution, serially diluted and seeded into multiple wells of a 96-well microtiter plate. Immediately, 2×10^5 exponentially growing Sup T1 cells were added to each well; Sup T1 cells readily form a syncytium with a cell which is productively infected with HIV-1. The wells were examined daily for the presence of syncytia, using a tissue culture microscope. The first signs of syncytia formation can be seen in 12 hours, with some complete syncytia developing by 24 hours. Final results were read at 72 hours. Each syncytium was counted as a single infected cell. The number of syncytia per seeded cell was determined and expressed as an infected center per infected cell. The number of syncytia per […] was 144 for the control Sup T1 cells.

[1] = molecular target: T1, HIV-1 reverse transcriptase (HIV-1 RT) (Human immunodeficiency virus type 1 group M subtype B, UniProt P04585); experiment: Inhibition of HIV-1 reverse-transcriptase activity in culture supernatant of infected Sup T1 cells; format: cell-based; conditions: for Inhibition of HIV-1 RT activity: 300 μM compound, Sup T1 cells treated 6 hours, supernatant at 96 hours post-infection, mean of duplicate
T1 construct: culture supernatant was removed and HIV-1 RT activity was assayed in triplicate; endogenous in cells; host or cells: Sup T1 cells infected with HIV-1; virion-associated enzyme in the culture supernatant

[2] = molecular target: recombinant human GST-RNase L (Homo sapiens, UniProt Q05823); conditions: 10 μM compound; mean of duplicate
RNase L = molecular target: T2, RNase L (Homo sapiens, UniProt Q05823); conditions: literature ref [10]; cited from earlier work
T2 sequence (Q05823 1-741): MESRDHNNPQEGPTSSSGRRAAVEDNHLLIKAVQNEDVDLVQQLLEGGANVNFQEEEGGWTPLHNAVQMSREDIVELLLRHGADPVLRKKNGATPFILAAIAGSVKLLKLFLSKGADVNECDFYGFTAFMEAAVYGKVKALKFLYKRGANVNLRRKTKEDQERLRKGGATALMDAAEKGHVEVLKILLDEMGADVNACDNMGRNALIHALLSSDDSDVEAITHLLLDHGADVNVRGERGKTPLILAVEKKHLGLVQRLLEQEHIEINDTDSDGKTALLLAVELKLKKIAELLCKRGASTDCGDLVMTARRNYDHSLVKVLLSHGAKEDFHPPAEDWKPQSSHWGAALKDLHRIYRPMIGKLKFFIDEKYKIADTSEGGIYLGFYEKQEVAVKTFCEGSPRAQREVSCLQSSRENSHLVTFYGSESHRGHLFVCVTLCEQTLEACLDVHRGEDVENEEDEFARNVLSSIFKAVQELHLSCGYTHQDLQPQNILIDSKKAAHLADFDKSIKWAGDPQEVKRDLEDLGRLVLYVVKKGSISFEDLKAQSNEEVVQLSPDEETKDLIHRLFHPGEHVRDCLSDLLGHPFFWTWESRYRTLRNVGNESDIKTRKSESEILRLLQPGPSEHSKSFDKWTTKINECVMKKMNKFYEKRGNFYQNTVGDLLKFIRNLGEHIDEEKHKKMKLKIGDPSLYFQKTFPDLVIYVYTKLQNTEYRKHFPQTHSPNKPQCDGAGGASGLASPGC

HIV-1 = conditions: literature ref [11]; cited from earlier work

Row | Compound | Inhibition of syncytia formation (fold reduction in infection) (HIV-1 strain IIIB) | inhibition at 300 µM ([1]; SUP-T1, read-out: Inhibition of HIV-1 RT activity) [%] | Inhibition of HIV-1 RT activity [1] [%] | Activation of RNase L (percent hydrolysis of poly(U)-3′-[32P]pCp) [2] [%] | Activation of RNase L (RNase L) | HIV-1 production (HIV-1)
1 | Nc1ncnc2c1ncn2[C@@H]1O[C@H](CO)C[C@H]1O [Cordycepin] | 1.5 fold | 13 | – | – | – | –
2 | Nc1nc2ncc(CNc3ccc(C(=O)N[C@@H](CCC(=O)NCCCCCC(=O)O[C@@H]4C[C@@H](COP(=O)(O)O[C@@H]5C[C@@H](COP(=O)(O)O[C@@H]6C[C@@H](CO)O[C@H]6n6cnc7c(N)ncnc76)O[C@H]5n5cnc6c(N)ncnc65)O[C@H]4n4cnc5c(N)ncnc54)C(=O)O)cc3)nc2c(=O)[nH]1 [compound 26] | 2.4 fold | – | 45 | – | – | –
3 | Nc1nc2ncc(CNc3ccc(C(=O)N[C@@H](CCC(=O)NCCCCCC(=O)OC[C@H]4O[C@@H](n5cnc6c(N)ncnc65)[C@H](OP(=O)(O)OC[C@@H]5C[C@@H](OP(=O)(O)OC[C@@H]6C[C@@H](O)[C@H](n7cnc8c(N)ncnc87)O6)[C@H](n6cnc7c(N)ncnc76)O5)[C@@H]4O)C(=O)O)cc3)nc2c(=O)[nH]1 [compound 33] | 7.5 fold and 7.2 fold | – | 81 | 35 | – | –
4 | (2′-5′)d^3′(A-A-A) [CCC] | 4.8 fold | – | 96 | 12 | no activation | inhibits HIV-1 production
